{
  "source": "patent US10828326B2",
  "about": "“Compositions and methods for treating and preventing venom related poisoning” (priority 2015, dated 2020)",
  "key": {"Crotalus atrox venom": {"tested_on": "Crotalus atrox venom", "assay": "Thrombelastography of human plasma pretreated with iron and/or CO, then incubated with Crotalus atrox venom (Example I)", "type": "biochemical", "conditions": "0.5 μg/ml venom, 5 min incubation", "experimental": "Two-hundred mg of lyophilized, pooled venom was obtained from four western diamondback rattlesnakes (Crotalus atrox) for experimentation. Venom was reconstituted in calcium-free phosphate buffered saline (PBS, Sigma-Aldrich, Saint Louis, Mo., USA) at a concentration of 20 mg/ml, aliquoted, and then stored at −80° C. until experimentation at the University of Arizona. Pooled human normal plasma (George King Bio-Medical, Overland Park, Kans., USA) anticoagulated with sodium citrate was rapidly thawed at 37° C. and used for experimentation. To assess the effects of pretreatment of fibrinogen with iron, CO, or both, 1% additions of PBS, ferric chloride (FeCl3, 99.9% pure, Sigma-Aldrich, Saint Louis, Mo., USA) in PBS, or CORM-2 (tricarbonyldichlororuthenium (II) dimer, a CO releasing molecule, Sigma-Aldrich, Saint Louis, Mo., USA) dissolved in dimethyl sulfoxide (DMSO, Sigma-Aldrich, Saint Louis, Mo., USA). The final concentrations of FeCl3 and CORM-2 were 10 μM and 100 μM, respectively; these concentrations are associated with nearly maximal augmenting effects on coagulation kinetics (see, Nielsen V G, et al., Blood Coagul Fibrinolysis 2014; 25:695-702). Plasma was exposed to these various agents for at least 5 min prior to incubations with venom.\nThe final volume for all subsequently described plasma sample mixtures was 359.4 μl. Sample composition consisted of 326 μl of plasma; 10 μl of tissue factor reagent (0.1% final concentration in distilled water; Diagnostica Stago S.A.S., Asnieres sur Seine, France) and 3.4 μl of PBS or venom (final concentration 0.5 μg/ml). […] The aforementioned plasma and venom mixtures were placed in a disposable cup in a computer-controlled Thrombelastograph® hemostasis system (Model 5000, Haemoscope Corp., Niles, Ill., USA) and incubated for 5 or 20 min at 37° C., with addition of 20 μl of 200 mM CaCl2) as the last step to initiate clotting. Data were collected at 37° C. for 15 min after 5 min of incubation, whereas samples incubated with venom for 20 min had data collected for 30 min, given the prolonged onset of coagulation and diminished rate of thrombus formation. The following elastic modulus-based parameters previously described (see, Nielsen, et al., 2014, Blood Coagul. Fibrinolysis 25:695-702; Nielsen, et al., 2011, Blood Coagul. Fibrinolysis 22: 443-447); Nielsen V G, et al., Blood Coagul Fibrinolysis 2014; 25:845-850) were determined: time to maximum rate of thrombus generation (TMRTG): this is the time interval (min) observed prior to maximum speed of clot growth; maximum rate of thrombus generation (MRTG): this is the maximum velocity of clot growth observed (dynes/cm^2/sec); and total thrombus generation (TTG, dynes/cm^2), the final viscoelastic resistance observed after clot formation.\nData are presented as mean+SD. A commercially available statistical program was used for one-way analysis of variance followed by Holm-Sidak post hoc analyses (SigmaStat 3.1, Systat Software, Inc., San Jose, Calif., USA). Graphics depicting viscoelastic data were generated with a commercially available program (OrigenPro 7.5, OrigenLab Corporation, Northampton, Mass., USA; CorelDRAW12, Corel Corporation, Mountain View, Calif., USA)."}, "[1]": {"tested_on": "Crotalus atrox venom-enhanced tissue-type plasminogen activator initiated fibrinolysis", "assay": "Thrombelastography of human plasma pretreated with iron and/or CO before venom exposure in the presence of tPA (Example II)", "type": "biochemical", "conditions": "100 IU/ml tPA, vs matched samples without or with venom exposure (0.5 μg/ml)", "experimental": "Two hundred mg of lyophilized, pooled venom was obtained from four western diamondback rattlesnakes (Crotalus atrox) for experimentation. Venom was reconstituted in calcium-free phosphate buffered saline (PBS, Sigma-Aldrich, Saint Louis, Mo., USA) at a concentration of 20 mg/ml, aliquoted, and then stored at −80° C. until experimentation at the University of Arizona.\nPooled normal plasma (George King Bio-Medical, Overland Park, Kans., USA) anticoagulated with sodium citrate was rapidly thawed at 37° C. and used for experimentation. To assess the effects of pretreatment of antifibrinolytic plasma proteins with iron, CO, or both, 1% additions of PBS, ferric chloride (FeCl3, 99.9% pure, Sigma-Aldrich, Saint Louis, Mo., USA) in PBS, or CORM-2 (tricarbonyldichlororuthenium (II) dimer, a CO releasing molecule, Sigma-Aldrich, Saint Louis, Mo., USA) dissolved in dimethyl sulfoxide (DMSO, Sigma-Aldrich, Saint Louis, Mo., USA) were used. […] Plasma was exposed to these various agents for at least 5 min prior to incubations with venom.\nThe final volume for all subsequently described plasma sample mixtures was 359.4 μl. Sample composition consisted of […] of plasma; 10 μl of tissue factor reagent (0.1% final concentration in distilled water; Diagnostica Stago S.A.S., Asnieres sur Seine, France), 10 μl of tissue type plasminogen activator (tPA, 580 IU/μg, Genentech, Inc., San Francisco, Calif., USA; 100 IU/ml final concentration) and 3.4 μl of PBS or venom (final concentration 0.5-2.0 μg/ml). […] The aforementioned plasma and venom mixtures were placed in a disposable cup in a computer-controlled Thrombelastograph® hemostasis system (Model 5000, Haemoscope Corp., Niles, Ill., USA) and incubated for 5 min at 37° C., with addition of 20 μl of 200 mM CaCl2) as the last step to initiate clotting. Data were collected at 37° C. until clot lysis time (CLT) was observed. The following elastic modulus-based parameters previously described (see, Nielsen V G, Pretorius E. Blood Coagul Fibrinolysis 2014; 25:695-702) were determined: time to maximum rate of thrombus generation (TMRTG): this is the time interval (min) observed prior to maximum speed of clot growth; maximum rate of thrombus generation (MRTG): this is the maximum velocity of clot growth observed (dynes/cm^2/sec); total thrombus generation (TTG, dynes/cm^2), the final viscoelastic resistance observed after clot formation; time to maximum rate of lysis (TMRL, min), maximum rate of lysis (MRL, dynes/cm^2/sec) and CLT (min). Lastly, to assess if venom had thrombolytic properties that were tPA independent, n=4 replicates were performed wherein no tPA was added and data were collected for 3 h.\nData are presented as mean±SD. All conditions unless otherwise indicated were represented by n=8 replicates. This number of replicates reliably provides a statistical power>0.8 for P<0.05 (see, Nielsen V G, Pretorius E. Blood Coagul Fibrinolysis 2014; 25:695-702). A commercially available statistical program was used for two-way analysis of variance (ANOVA) to assess interactions of venom and tPA on coagulation kinetics and interactions of iron and CO on venom-enhanced fibrinolysis (SigmaStat 3.1, Systat Software, Inc., San Jose, Calif., USA). Additional one-way ANOVA followed by Holm-Sidak post hoc analyses were performed to assess differences between the conditions. Graphics depicting viscoelastic data were generated with a commercially available program (OrigenPro 7.5, OrigenLab Corporation, Northampton, Mass., USA)."}, "[2]": {"conditions": "10 μM ferric chloride or 100 μM CORM-2"}},
  "data": [
    {"smiles": "[Cl][Fe]([Cl])[Cl]", "note": "[iron, ferric chloride]", "values": [
      {"measurement": "maximum rate of thrombus generation (MRTG), change on venom exposure", "setting": "Crotalus atrox venom; vs matched venom naïve samples", "value": "significantly decreased"},
      {"measurement": "maximum rate of thrombus generation (MRTG)", "setting": "Crotalus atrox venom; vs plasma without additions exposed to venom", "value": "significantly greater"},
      {"measurement": "time to maximum rate of thrombus generation (TMRTG)", "setting": "Crotalus atrox venom; vs samples without iron/CO additions or with CO addition alone", "value": "significantly smaller"},
      {"measurement": "clot lysis time (CLT)", "setting": "[1]; [2]", "value": "significantly greater"},
      {"measurement": "maximum rate of thrombus generation (MRTG)", "setting": "[1]; [2]", "value": "greater"},
      {"measurement": "time to maximum rate of lysis (TMRL)", "setting": "[1]; [2]", "value": "significantly greater"},
      {"measurement": "total thrombus generation (TTG)", "setting": "[1]; [2]", "value": "greater"},
      {"measurement": "maximum rate of lysis (MRL)", "setting": "[1]; 10 μM ferric chloride", "value": "significantly greater"},
      {"measurement": "time to maximum rate of thrombus generation (TMRTG)", "setting": "[1]; 10 μM ferric chloride", "value": "significantly lesser"}
    ]}
  ]
}
